Here are results for nine compounds from US12389930B2, “Breast milk-derived Lactobacillus plantarum and use thereof” (Beijing Sanyuan Foods Co., Ltd., priority 2020, dated 2025).

In this assay the test system is Lactobacillus plantarum P6. In words: Drug resistance determination (E-test strips, MIC). In kind it is cell-based. Further details: key to Susceptibility class of P6 to the antibiotic: S: susceptible; I: intermediate; R: resistance. Conditions: for MIC: Lactiplantibacillus plantarum, P6, read-out: Minimum inhibitory concentration MIC; for Susceptibility of P6 to the antibiotic (in words): summary of Table 3. Here is the method: The cultured P6 bacteria solution was activated for three generations, and streaked on the MRS solid medium plate, which was then cultured in an anaerobic incubator at 37° C. for 24 hours. A single colony was picked up and dissolved in normal saline to prepare a suspension equivalent to 0.5 […] concentration, which was then coated on an MH solid medium. After drying, ten E-test strips were attached onto the MH solid medium, and cultured at 37° C. for 24-48 hours. The MIC value (minimum inhibitory concentration value) was determined according to the inhibition zone diameter. Escherichia coli ATCC25922 and Staphylococcus aureus ATCC25923 were used as quality-control strains. Quality-control strains were used as control for each batch test, and the MIC of the quality-control strains was required to be within the range specified by CLSI (Clinical and Laboratory Standards […]). An MH solid plate without antibiotics was used as blank control.

The mark [1] stands for this setting: E-test, MH solid medium, 37° C., 24-48 hours.

≈ marks a conversion by molar mass, not a printed value.

For the compound `NCC[C@H](O)C(=O)N[C@@H]1C[C@H](N)[C@@H](O[C@H]2O[C@H](CN)[C@@H](O)[C@H](O)[C@H]2O)[C@H](O)[C@H]1O[C@H]1O[C@H](CO)[C@@H](O)[C@H](N)[C@H]1O` [amikacin], the “Susceptibility of P6 to the antibiotic (in words)” value (“Susceptibility of P6” for short) is given as “extremely susceptible”. In addition, the MIC under setting [1] came to 2 µg/mL (≈ 3.42 µM).

On to `CC1(C)S[C@@H]2[C@H](NC(=O)[C@H](N)c3ccccc3)C(=O)N2[C@H]1C(=O)O` [ampicillin], for which the “Susceptibility of P6” value is “extremely susceptible”. In addition, under setting [1], the MIC came out at 1.5 µg/mL (≈ 4.29 µM).

For the compound `CC[C@H]1OC(=O)[C@H](C)[C@@H](O[C@H]2C[C@@](C)(OC)[C@@H](O)[C@H](C)O2)[C@H](C)[C@@H](O[C@@H]2O[C@H](C)C[C@H](N(C)C)[C@H]2O)[C@](C)(O)C[C@@H](C)CN(C)[C@H](C)[C@@H](O)[C@]1(C)O` [azithromycin, Azithromycin], the “Susceptibility of P6” value was “extremely susceptible”. The MIC under setting [1] was 0.094 µg/mL (≈ 0.126 µM).

Take `CO/N=C(\C(=O)N[C@@H]1C(=O)N2C(C(=O)O)=C(CSc3nc(=O)c(=O)[nH]n3C)CS[C@H]12)c1csc(N)n1` [ceftriaxone]: the “Susceptibility of P6” value is on record as “extremely susceptible”. Also, the MIC under setting [1] was 0.125 µg/mL (≈ 0.225 µM).

Regarding `O=C(N[C@H](CO)[C@H](O)c1ccc([N+](=O)[O-])cc1)C(Cl)Cl` [chloramphenicol], the “Susceptibility of P6” value is reported as “intermediately susceptible”. Besides, the MIC under setting [1] amounted to 16 µg/mL (≈ 49.5 µM).

On to `CCC[C@@H]1C[C@@H](C(=O)N[C@@H]([C@H]2O[C@H](SC)[C@H](O)[C@@H](O)[C@H]2O)[C@H](C)Cl)N(C)C1` [clindamycin], for which, under setting [1], the MIC turned out to be 0.016 µg/mL (≈ 0.0376 µM).

`CC[C@H]1OC(=O)[C@H](C)[C@@H](O[C@H]2C[C@@](C)(OC)[C@@H](O)[C@H](C)O2)[C@H](C)[C@@H](O[C@@H]2O[C@H](C)C[C@H](N(C)C)[C@H]2O)[C@](C)(O)C[C@@H](C)C(=O)[C@H](C)[C@@H](O)[C@]1(C)O` [erythromycin]: the “Susceptibility of P6” value is given as “extremely susceptible”. Moreover, the MIC under setting [1] is 0.38 µg/mL (≈ 0.518 µM).

In the case of `CC1(C)S[C@@H]2[C@H](NC(=O)Cc3ccccc3)C(=O)N2[C@H]1C(=O)O` [penicillin G], the “Susceptibility of P6” value is given as “resistant”. Further, the “Minimum inhibitory concentration MIC” value under setting [1] amounted to 32 µg/mL (≈ 95.7 µM). Besides, the “Susceptibility class of P6 to the antibiotic” value (E-test, class after the slash in the MIC cell) was “R”.

As for `CN(C)[C@@H]1C(O)=C(C(N)=O)C(=O)[C@@]2(O)C(O)=C3C(=O)c4c(O)cccc4[C@@](C)(O)[C@H]3C[C@@H]12` [tetracycline], the MIC under setting [1] came to 256 µg/mL (≈ 576 µM).
